# Assay results from ChEMBL document CHEMBL1201862, “PubChem BioAssay data set” (2004).
# Active and inactive are the calls of the source.
# What was measured:
# [1] = Luminescence Cell-Based Dose Retest to Confirm Inhibitors of Cancer Stem Cells. [Related pubchem assays (depositor defined):AID2717, AID2721]; format: functional; conditions: Homo sapiens
# [2] = molecular target: Photoreceptor-specific nuclear receptor (Homo sapiens, UniProt Q9Y5X4); format: functional, cell-based;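 also: CHO-S cells with Gal4-NCOR and VP16-NR2E3 two-hybrid luciferase reporter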
# Sequence of Photoreceptor-specific nuclear receptor (Q9Y5X4 whole entry, the tested form may be a part): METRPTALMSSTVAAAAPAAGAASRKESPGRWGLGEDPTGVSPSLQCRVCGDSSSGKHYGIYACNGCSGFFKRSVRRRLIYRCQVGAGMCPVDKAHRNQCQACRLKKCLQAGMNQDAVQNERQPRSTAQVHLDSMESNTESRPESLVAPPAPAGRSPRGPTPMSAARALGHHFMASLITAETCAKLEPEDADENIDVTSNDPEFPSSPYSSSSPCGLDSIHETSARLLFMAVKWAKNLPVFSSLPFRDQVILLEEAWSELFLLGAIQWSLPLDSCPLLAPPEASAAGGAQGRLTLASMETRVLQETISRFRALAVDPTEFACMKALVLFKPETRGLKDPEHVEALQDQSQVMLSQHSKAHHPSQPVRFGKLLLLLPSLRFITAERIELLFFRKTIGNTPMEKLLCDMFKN
# [3] = intracellular Trypanosoma cruzi inhibitors in host cells – cell-based, plate reader, cherry-pick samples, set 3, dose response (AID 651818); format: functional;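 also: compounds incubated with infected cells for about four days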
# [4] = molecular target: Glucose-6-phosphate 1-dehydrogenase (Homo sapiens, UniProt P11413); experiment: human G6PD enzyme inhibitors, dose response, selectivity assay for P. falciparum G6PD inhibitor project, biochemical, fluorescence (AID 504792); format: functional
# Sequence of Glucose-6-phosphate 1-dehydrogenase (P11413 whole entry): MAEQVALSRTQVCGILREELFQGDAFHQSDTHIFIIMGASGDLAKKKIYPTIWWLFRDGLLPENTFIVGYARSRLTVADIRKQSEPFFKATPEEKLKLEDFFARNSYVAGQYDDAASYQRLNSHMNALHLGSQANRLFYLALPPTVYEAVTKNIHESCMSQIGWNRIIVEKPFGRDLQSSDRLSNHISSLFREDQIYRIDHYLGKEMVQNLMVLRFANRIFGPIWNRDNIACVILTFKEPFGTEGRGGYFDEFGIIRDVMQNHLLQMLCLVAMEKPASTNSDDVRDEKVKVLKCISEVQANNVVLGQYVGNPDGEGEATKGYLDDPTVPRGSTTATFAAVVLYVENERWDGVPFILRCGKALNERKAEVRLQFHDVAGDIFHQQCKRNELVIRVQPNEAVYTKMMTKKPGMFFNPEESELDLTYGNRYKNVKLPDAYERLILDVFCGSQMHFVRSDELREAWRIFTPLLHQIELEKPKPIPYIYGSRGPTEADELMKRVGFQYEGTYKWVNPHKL
# [5] = molecular target: T1, Adenosylmethionine-8-amino-7-oxononanoate aminotransferase (Mycobacterium tuberculosis, UniProt P9WQ81); experiment: Mycobacterium tuberculosis BioA enzyme inhibitor Measured in Biochemical System Using Plate Reader - 2163-02_Inhibitor_Dose_CherryPick_Activity.; format: functional, Mycobacterium tuberculosis UT205
# T1 sequence (P9WQ81 whole entry): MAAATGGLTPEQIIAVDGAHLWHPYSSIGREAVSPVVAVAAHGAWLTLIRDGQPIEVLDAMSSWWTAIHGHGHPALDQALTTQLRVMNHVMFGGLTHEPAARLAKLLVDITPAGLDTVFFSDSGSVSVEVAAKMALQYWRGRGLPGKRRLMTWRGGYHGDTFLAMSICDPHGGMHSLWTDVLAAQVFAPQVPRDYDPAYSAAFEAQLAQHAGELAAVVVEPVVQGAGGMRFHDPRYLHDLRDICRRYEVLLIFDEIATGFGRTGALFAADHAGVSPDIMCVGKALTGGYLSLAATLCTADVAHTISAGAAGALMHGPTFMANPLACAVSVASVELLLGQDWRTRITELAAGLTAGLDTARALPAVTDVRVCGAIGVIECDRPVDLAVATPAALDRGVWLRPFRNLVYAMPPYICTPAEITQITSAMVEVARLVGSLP
# INS1 = experiment: beta cell apoptosis inhibitors, cytokine rescue, dose response, luminescence, retest (AID 449756); format: functional, cell-based; conditions: Rattus norvegicus;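 also: cell death triggered by IL-1 beta plus TNF-alpha plus IFN-gamma mixture; protective hits raise ATP signal compared with cytokine alone wells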
# [6] = growth suppression of beta-catenin-knockout colon cells, dose response, cell-based, HCT116, human colon tumor (AID 1045); format: functional;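 also: HCT116 colon tumor cells with beta catenin knocked out; cells exposed to compound for 60 hours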
# [7] = growth suppression of PTEN-null colon cells, dose response, cell-based, HCT116 PTEN knockout (AID 1047); format: functional;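 also: HCT116 colon tumor cells with PTEN knocked out; cells exposed to compound for 60 hours before readout; potency for loss of cell viability measured by luminescence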
# [8] = Fluorescence-based cell-based high throughput dose response assay for inhibitors of the interaction of nucleotide-binding oligomerization domain containing 2 (NOD2) and the receptor-interacting serine-threonine kinase 2 (RIPK2).; format: functional; conditions: Homo sapiens
# [9] = CEM21 lymphoblast cell cytotoxicity, dose response, cytotoxicity control for viral fusion inhibitor project, CellTiter-Glo luminescence, cherry-picked (AID 652042); format: functional, cell-based;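 also: potency for signal decrease meaning cytotoxicity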
# [10] = inhibitors of clade B AD8 Env fusion, dose response, cell-based, cherry-pick (AID 652062); format: functional;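 also: luciferase signal from cell-cell fusion driven by HIV-1 clade B AD8 Env; potency is for inhibitors of fusion seen as a drop in luminescence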
# [11] = inhibitors of HIV Env-driven cell fusion, dose response, cherry-pick (AID 652057); format: functional, cell-based
# [12] = off-target signal loss in HeLa-CEM21 co-culture – HeLa F-luc CTL cells, cherry-picked, counter-screen for HIV-1 Env fusion inhibitor project, dose response (AID 652040); format: functional, cell-based;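 also: potency for signal decrease marking cytotoxic or nonspecific inhibition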
# [13] = ZM109 Env clade C HIV-1 fusion inhibitors, dose response, HeLa effector, CEM target cells, luciferase, cherry-pick (AID 652058); format: functional, cell-based
# Paired box protein Pax-8 = Paired box protein Pax-8 (Homo sapiens, UniProt Q06710); experiment: inhibitors of PAX8-driven TPO luciferase reporter, dose response, RMG-I cells, cherry-pick (AID 687027); format: functional, cell-based;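 also: luciferase reporter driven by Pax8 target thyroperoxidase promoter measured by SteadyGlo luminescence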
# Sequence of Paired box protein Pax-8 (Q06710 whole entry): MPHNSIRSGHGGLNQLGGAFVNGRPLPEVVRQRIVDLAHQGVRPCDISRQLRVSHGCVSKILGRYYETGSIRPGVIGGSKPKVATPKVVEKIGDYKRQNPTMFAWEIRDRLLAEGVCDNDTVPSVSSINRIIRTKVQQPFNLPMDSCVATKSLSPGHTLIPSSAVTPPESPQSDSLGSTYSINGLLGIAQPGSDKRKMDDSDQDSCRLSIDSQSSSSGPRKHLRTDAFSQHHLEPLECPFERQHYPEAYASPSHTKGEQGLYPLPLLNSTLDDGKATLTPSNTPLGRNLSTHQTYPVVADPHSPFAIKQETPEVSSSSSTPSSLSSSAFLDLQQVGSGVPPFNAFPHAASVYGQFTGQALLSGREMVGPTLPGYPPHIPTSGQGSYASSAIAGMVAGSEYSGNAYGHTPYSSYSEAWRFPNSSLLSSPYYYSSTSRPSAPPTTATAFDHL
# [14] = molecular target: T2, Nuclear receptor subfamily 0 group B member 1 (Homo sapiens, UniProt P51843); format: functional, cell-based;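 also: HEK293T cells transfected with SF-1 and DAX-1 plus StAR promoter luciferase reporter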
# T2 sequence (P51843 whole entry): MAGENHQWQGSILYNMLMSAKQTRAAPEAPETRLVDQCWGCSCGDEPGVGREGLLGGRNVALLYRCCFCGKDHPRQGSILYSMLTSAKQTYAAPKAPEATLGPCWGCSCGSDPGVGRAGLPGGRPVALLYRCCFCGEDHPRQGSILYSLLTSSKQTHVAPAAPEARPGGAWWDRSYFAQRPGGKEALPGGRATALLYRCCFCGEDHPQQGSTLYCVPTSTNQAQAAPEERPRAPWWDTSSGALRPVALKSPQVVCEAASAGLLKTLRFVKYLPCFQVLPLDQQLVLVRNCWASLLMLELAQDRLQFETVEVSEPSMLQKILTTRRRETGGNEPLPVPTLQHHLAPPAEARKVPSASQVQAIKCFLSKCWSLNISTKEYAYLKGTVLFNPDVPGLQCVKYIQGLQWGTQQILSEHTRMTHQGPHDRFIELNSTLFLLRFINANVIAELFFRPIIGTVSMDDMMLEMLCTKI
# cells = format: functional, cell-based
# [15] = molecular target: T3, Probable nicotinate-nucleotide adenylyltransferase (Staphylococcus aureus (strain N315), UniProt P65502); format: functional, Staphylococcus aureus subsp. aureus N315; conditions: read-out: IC50_Mean;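 as to IC50 Mean: confirmatory dose-response retesting of NadD inhibitor hits first found in an ultra-high-throughput screen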
# T3 sequence (P65502 whole entry): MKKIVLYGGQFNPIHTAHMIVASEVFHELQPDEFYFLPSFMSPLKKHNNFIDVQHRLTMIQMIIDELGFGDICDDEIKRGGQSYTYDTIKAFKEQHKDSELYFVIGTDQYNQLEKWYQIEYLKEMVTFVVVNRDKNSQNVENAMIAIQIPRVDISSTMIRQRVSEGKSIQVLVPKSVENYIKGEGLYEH
# [16] = molecular target: T3, Probable nicotinate-nucleotide adenylyltransferase; format: functional, Staphylococcus aureus subsp. aureus N315
# [17] = molecular target: T4, Carboxy-terminal domain RNA polymerase II polypeptide A small phosphatase 1 (Homo sapiens, UniProt Q9GZU7); experiment: inhibitors of CTDSP1, concentration-response testing, biochemical assay, absorbance-based, actives from ultra-high-throughput screening (AID 540297); format: functional
# T4 sequence (Q9GZU7 whole entry): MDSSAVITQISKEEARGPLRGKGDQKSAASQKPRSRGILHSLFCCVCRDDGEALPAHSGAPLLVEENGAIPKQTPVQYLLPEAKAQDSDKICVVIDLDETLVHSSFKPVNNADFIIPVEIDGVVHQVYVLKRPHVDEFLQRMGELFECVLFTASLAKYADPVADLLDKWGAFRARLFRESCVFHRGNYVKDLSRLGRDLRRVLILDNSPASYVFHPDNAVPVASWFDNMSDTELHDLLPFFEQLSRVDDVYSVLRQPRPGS
# [18] = StAR promoter reporter inhibition counter-screen, dose response, counter-screen for LRH-1 inverse agonist project, cell-based, luminescence, luciferase reporter (AID 651969); format: functional
# [19] = molecular target: Nuclear receptor subfamily 5 group A member 2 (Homo sapiens, UniProt O00482); format: functional, cell-based;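 also: HEK293T cells transfected with LRH-1 and a StAR promoter luciferase reporter; potency for inhibitors that lower LRH-1 driven reporter light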
# Sequence of Nuclear receptor subfamily 5 group A member 2 (O00482 whole entry): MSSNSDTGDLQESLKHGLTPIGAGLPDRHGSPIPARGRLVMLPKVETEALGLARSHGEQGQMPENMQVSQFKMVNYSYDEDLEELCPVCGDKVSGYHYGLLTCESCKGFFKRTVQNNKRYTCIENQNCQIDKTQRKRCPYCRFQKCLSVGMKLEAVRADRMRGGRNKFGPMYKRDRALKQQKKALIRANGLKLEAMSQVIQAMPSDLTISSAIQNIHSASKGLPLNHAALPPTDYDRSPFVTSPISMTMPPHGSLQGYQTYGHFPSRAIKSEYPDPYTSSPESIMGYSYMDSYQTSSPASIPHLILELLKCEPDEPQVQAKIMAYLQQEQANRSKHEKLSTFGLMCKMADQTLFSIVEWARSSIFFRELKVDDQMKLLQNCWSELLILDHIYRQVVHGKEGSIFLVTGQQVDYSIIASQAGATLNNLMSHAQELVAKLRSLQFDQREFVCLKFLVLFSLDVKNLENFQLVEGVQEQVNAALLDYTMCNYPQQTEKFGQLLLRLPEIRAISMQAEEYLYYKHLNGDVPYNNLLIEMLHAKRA
# Steroidogenic factor 1 = Steroidogenic factor 1 (Homo sapiens, UniProt Q13285); experiment: Counterscreen for inverse agonists of the liver receptor homolog-1 (LRH-1; NR5A2): Luminescence-based cell-based high throughput dose response assay to identify inverse agonists of the Steroidogenic Factor 1 Nuclear Receptor (SF1; NR5A1).; format: functional
# Sequence of Steroidogenic factor 1 (Q13285 whole entry): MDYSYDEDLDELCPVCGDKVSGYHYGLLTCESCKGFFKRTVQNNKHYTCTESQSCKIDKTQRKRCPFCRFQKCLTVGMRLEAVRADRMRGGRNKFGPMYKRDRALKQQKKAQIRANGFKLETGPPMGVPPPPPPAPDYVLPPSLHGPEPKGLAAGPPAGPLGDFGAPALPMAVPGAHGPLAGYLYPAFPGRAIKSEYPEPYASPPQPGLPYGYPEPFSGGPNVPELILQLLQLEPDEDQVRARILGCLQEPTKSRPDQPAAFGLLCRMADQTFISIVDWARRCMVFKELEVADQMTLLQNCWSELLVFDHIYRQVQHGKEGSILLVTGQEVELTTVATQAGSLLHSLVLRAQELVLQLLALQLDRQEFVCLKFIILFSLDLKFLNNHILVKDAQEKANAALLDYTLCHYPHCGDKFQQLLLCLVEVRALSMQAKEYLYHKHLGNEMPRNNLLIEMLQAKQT
structure (smiles),measurement,setting,value
N#Cc1c(-c2ccccc2)cc(-c2ccccc2)nc1SCCC(=O)O,AC50,[1],1.6 µM (active)
same,IC50,[2],12.7 µM (inactive)
C[C@@H]1CN([C@@H](C)CO)C(=O)c2cccc(NC(=O)CCCCCC(=O)Nc3ccccc3N)c2O[C@H]1CN(C)CC1CCCCC1,AC50,[3],3.58 µM (active)
CCC(CO)N1C(C)=CC(=Cc2sc3ccccc3[n+]2Cc2ccccc2)C=C1C (stereo not given),IC50,[4],> 80 µM (inactive)
same,AC50,[5],2.73 µM (active)
same,AC50,INS1,0.613 µM (active)
same,EC50,[6],0.775 µM (active)
same,EC50,[7],1.19 µM (active)
C[C@@H]1CN([C@H](C)CO)C(=O)Cc2cc(NS(=O)(=O)c3ccc(Cl)cc3)ccc2O[C@@H]1CN(C)S(=O)(=O)c1ccc(F)cc1,AC50,[3],7.57 µM (active)
COC(=O)C1CCN(C(c2ccc(OC)c(OC)c2)c2sc3nc(C)nn3c2O)CC1 (stereo not given),AC50,[5],17.4 µM (active)
CCOC(=O)c1c(SCCN2CCCC2)n(-c2ccccc2)c(=S)n(-c2ccccc2)c1=O,IC50,[8],1.09 µM (active)
CSc1ccc(CN2CCC2(C)C(=O)Nc2cccc(NS(C)(=O)=O)c2)cc1 (stereo not given),AC50,[9],58.6 µM (active)
same,AC50,[10],21.7 µM (active)
same,AC50,[11],9.03 µM (active)
same,AC50,[12],11.4 µM (active)
same,AC50,[13],10.3 µM (active)
COc1ccc(-c2cnc3c(NC=O)cc(-c4ccccc4OC)cn23)cc1OC,AC50,Paired box protein Pax-8,1.55 µM (active)
same,IC50,[14],> 67.6 µM (inactive)
same,IC50,cells,> 67.6 µM (inactive)
Cc1noc(C)c1NC(=O)N(C)C[C@@H]1Oc2c(NC(=O)c3ccncc3)cccc2C(=O)N([C@H](C)CO)C[C@@H]1C,IC50,[15],38.7 µM (active)
same,IC50,[16],27.3 µM (active)
same,IC50,[17],7.66 µM (active)
COC(=O)c1ccc(NC(=O)COc2cccc(-n3cnnn3)c2)cc1,IC50,[18],35.9 µM (inactive)
same,IC50,[19],35.9 µM (inactive)
same,IC50,Steroidogenic factor 1,35.9 µM (inactive)
